Laboratory results taken from patent US20020038064A1, “Colorless petroleum marker dyes” (priority 2000, published 2002).

Assay: Water extraction test of 10 ppm marker solution in kerosene
Format: physicochemical
Details: 10 mL of 10 ppm solution in kerosene stirred with 10 mL water for ½ hour; layers separated, 2 mL developer added to each layer
Method: A marker solution was prepared by dissolving a 100 mg portion of the residue in xylenes (100 mL), and diluting 1 mL of the resulting solution to 100 mL with kerosene to make a 10 ppm solution.
A developer was made by dissolving 1 g of a 40% solution of benzyltrimethylammonium hydroxide in methanol in 99 g of 2-ethyl-1-hexanol. To a 10 mL portion of the 10 ppm marker solution prepared above was added 2.5 mL of the developer. […] If necessary, quantitative determination of the marker concentration can be accomplished by measuring the absorbance of the solution at a wavelength of 581 nm.
A 10 mL portion of the 10 ppm solution prepared above was stirred with 10 mL of water for ½ hour and the layers were separated. […] Addition of 2 mL of developer solution to the water layer gave no color.

CCCC(=O)Oc1ccc(C2(c3ccc(OC(=O)CCC)c(C)c3)OC(=O)c3ccccc32)cc1C [Example 1, Di-n-Butyl Ester of o-Cresolphthalein]
extraction of the marker into the water layer: not extracted into the water layer
